ChEMBL document CHEMBL6114994, “Ligustrazine as a multitarget scaffold in drug design and discovery” (Bioorg Med Chem, 2025)
≈ marks a conversion by molar mass, not a printed value. Values belong to the compound of their own block, whether it stands above or below them.

Assays:
MDA-MB-231 = assay: Antiproliferative activity against human MDA-MB-231 cells assessed as reduction in cell viability incubated for 72 hrs by MTT assay; type: functional, cell-based; details: MDA-MB-231, 72 h
HCT-116 = assay: Antiproliferative activity against human HCT-116 cells assessed as reduction in cell viability incubated for 72 hrs by MTT assay; type: functional, cell-based; details: HCT-116, 72 h
MCF7 = assay: Antiproliferative activity against human MCF7 cells assessed as reduction in cell viability incubated for 72 hrs by MTT assay; type: functional, cell-based; details: MCF7, 72 h
[1] = Inhibition of Lipoxygenase (unknown origin); design: species or system Homo sapiens
HepG2 = assay: Cytotoxicity against human HepG2 cells assessed as inhibition of cell growth at 10 uM incubated for 72 hrs by MTT assay relative to control; type: functional; design: scale not given: the % may be the effect or the level left
MDCK = assay: Cytotoxicity against dog MDCK cells assessed as inhibition of cell growth at 10 uM relative to control; type: functional, Canis lupus familiaris; design: scale not given: the % may be the effect or the level left
[2] = target: T1, Prostaglandin G/H synthase 1 (Ovis aries, UniProt P05979); assay: Inhibition of ovine COX-1 by EIA method
T1 sequence (P05979 whole entry): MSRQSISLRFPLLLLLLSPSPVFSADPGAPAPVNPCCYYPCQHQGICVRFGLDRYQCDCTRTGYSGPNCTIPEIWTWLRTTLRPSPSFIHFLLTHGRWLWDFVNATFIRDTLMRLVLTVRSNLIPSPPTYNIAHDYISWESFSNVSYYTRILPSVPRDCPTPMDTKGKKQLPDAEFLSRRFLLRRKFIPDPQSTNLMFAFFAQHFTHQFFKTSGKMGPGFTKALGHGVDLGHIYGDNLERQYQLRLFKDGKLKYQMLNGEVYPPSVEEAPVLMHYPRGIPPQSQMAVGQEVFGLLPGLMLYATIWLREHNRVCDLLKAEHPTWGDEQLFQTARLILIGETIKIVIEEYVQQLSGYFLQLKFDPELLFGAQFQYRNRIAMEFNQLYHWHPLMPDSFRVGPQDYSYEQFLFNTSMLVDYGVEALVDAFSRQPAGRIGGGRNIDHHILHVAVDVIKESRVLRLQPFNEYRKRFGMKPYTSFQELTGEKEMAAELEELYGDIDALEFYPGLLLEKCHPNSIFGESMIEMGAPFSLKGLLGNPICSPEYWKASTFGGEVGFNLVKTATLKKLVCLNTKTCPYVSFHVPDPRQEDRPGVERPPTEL

A549 = assay: cells; details: Homo sapiens
Description: Antiproliferative activity against human A549 cells assessed as reduction in cell viability by MTT assay

[3] = Cytoprotective activity against H2O2-induced oxidative stress in human HBMEC-2 cells assessed as increase in cell viability incubated for 24 hrs by MTT assay; type: functional, cell-based; details: HBMEC-2, 24 h
PC-12 = assay: Cytoprotective activity against COCL2-induced cellular damage in rat PC12 cells assessed as reduction in cell viability incubated for 48 hrs by MTT assay; type: functional, cell-based; details: PC-12, 48 h
Acetylcholinesterase [4] = target: T2, Acetylcholinesterase (Homo sapiens, UniProt P22303); assay: Inhibition of AChE (unknown origin) by Ellman's method
HUVEC = assay: Protection against H2O2-induced oxidative stress in HUVEC cells; type: functional, cell-based; details: Homo sapiens
SH-SY5Y [5] = assay: Cytoprotective activity against H2O2-induced oxidative stress in human SH-SY5Y cells assessed as increase in cell viability incubated for 24 hrs by MTT assay; type: functional, cell-based
SH-SY5Y [6] = assay: Cytoprotective activity against OGD/R induced human SH-SY5Y cells assessed as assessed as cell survival rate at 10 uM measured after 8 hrs by MTT assay relative to control; type: functional
[7] = Solubility in water; type: physicochemical
Acetylcholinesterase [8] = target: T2, Acetylcholinesterase; assay: Inhibition of AChE (unknown origin)
[9] = Solubility in water by HPLC analysis; type: physicochemical
[10] = Inhibition of accumulation of sorbitol in human Red blood cells; type: functional, cell-based; details: erythrocyte
[11] = target: Aldo-keto reductase family 1 member B1 (Rattus norvegicus, UniProt P07943); assay: Inhibition of rat lens aldose reductase

T2 sequence (P22303 whole entry): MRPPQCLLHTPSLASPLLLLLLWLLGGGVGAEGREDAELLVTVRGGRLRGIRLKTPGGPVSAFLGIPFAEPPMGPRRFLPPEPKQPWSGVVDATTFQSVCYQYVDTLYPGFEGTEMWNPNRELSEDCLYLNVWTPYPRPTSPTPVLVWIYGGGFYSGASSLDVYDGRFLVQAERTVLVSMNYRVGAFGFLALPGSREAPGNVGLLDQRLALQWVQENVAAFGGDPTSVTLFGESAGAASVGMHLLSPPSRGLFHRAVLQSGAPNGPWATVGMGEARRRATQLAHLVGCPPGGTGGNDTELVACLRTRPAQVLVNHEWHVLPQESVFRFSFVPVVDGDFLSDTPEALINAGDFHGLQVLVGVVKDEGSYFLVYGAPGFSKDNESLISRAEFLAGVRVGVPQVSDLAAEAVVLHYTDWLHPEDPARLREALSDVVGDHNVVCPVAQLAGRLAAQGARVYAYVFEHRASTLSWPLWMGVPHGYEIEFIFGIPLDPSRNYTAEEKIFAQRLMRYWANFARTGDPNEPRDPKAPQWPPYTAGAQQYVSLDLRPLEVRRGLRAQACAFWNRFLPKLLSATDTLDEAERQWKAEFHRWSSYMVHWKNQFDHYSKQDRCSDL

IC50 (MDA-MB-231): 3.9 µM
IC50 (HCT-116): 1.71 µM
IC50 (MCF7): 2.08 µM
Compound: O=[N+]([O-])c1ccc2c(c1)S(=O)(=O)C=C2

IC50 [1]: 7.5 µM
Compound: Cc1nc(C)c(/C=C2\CN(C)C/C(=C\c3nc(C)c(C)nc3C)C2=O)nc1C

Compound: C=C(C)[C@@H]1CC[C@]2(C(=O)OCc3nc(C)c(C)nc3C)CC[C@]3(C)[C@H](CC[C@@H]4[C@@]5(C)CC[C@H](O)C(C)(C)[C@@H]5CC[C@]43C)[C@@H]12
Activity (HepG2): 99.87%
Activity (MDCK): 26.5%

IC50 [2]: 0.5 µM
Compound: COc1ccc(/C=C2\CN(C)C/C(=C\c3nc(C)c(C)nc3C)C2=O)c(Cl)c1

IC50 (MDA-MB-231): > 10 µM
IC50 (HCT-116): > 10 µM
IC50 (MCF7): > 10 µM
Compound: Cc1nc(C)c(C(=O)NC2CCN(C(=O)C3=Cc4ccccc4S3(=O)=O)CC2)nc1C

IC50 (MDA-MB-231): > 10 µM
IC50 (HCT-116): > 10 µM
IC50 (MCF7): > 10 µM
Compound: Cc1nc(C)c(C(=O)NC2CCN(C(=O)C3=Cc4ccccc4S3(=O)=O)C2)nc1C (configuration not stated)

IC50 (A549): 2.19 µM
Compound: COc1ccc(/C=C/C(=O)/C=C/c2nc(C)c(C)nc2C)cc1O

Compound: COc1cc(CNC(=O)c2ccc(O)c(O)c2)ccc1OCc1nc(C)c(C)nc1C
EC50 [3]: 4.15 µM

Compound: Cc1nc(C)c(COC(=O)/C=C/c2ccc(OCc3nc(C)c(C)nc3C)cc2)nc1C
EC50 (PC-12): 3.68 µM

Compound: COc1cc(/C=C/C(=O)c2ccc(OCCN3CCCC3)cc2)ccc1OCc1nc(C)c(C)nc1C
IC50 (Acetylcholinesterase [4]): 0.98 µM

Compound: COc1cc(C(=O)Nc2cccc(N(C)C)c2)ccc1OCc1nc(C)c(C)nc1C
EC50 (PC-12): 17.4 µM

IC50 (MDA-MB-231): 4.86 µM
IC50 (HCT-116): 6.44 µM
IC50 (MCF7): 3.29 µM
Compound: Cc1nc(C)c(C(=O)N2CCN(C(=O)C3=Cc4c(Br)cccc4S3(=O)=O)CC2)nc1C

Compound: Cc1nc(C)c(/C=C/c2nc(C)c(C)nc2C)nc1C
EC50 (HUVEC): 25.6 µM

EC50 (SH-SY5Y [5]): 2.56 µM
Compound: CC(=O)Oc1ccc(C[C@@H](OC(C)=O)C(=O)OCc2nc(C)c(C)nc2C)cc1OC(C)=O

Compound: CCCCC(OC(=O)CN1CCN(C)CC1)c1ccc(I)cc1C(=O)OCc1nc(C)c(C)nc1C (configuration not stated)
Activity (SH-SY5Y [6]): 90%

IC50 (MDA-MB-231): 2.2 µM
IC50 (HCT-116): 2.67 µM
IC50 (MCF7): 1.5 µM
Compound: Cc1nc(C)c(CN2CCN(C(=O)C3=Cc4c(Cl)cccc4S3(=O)=O)CC2)nc1C

solubility [7]: > 0.1 µg/mL
Compound: C=CCC(CC=C)(OC(=O)[C@@H](Cc1ccc(OC(C)=O)c(OC(C)=O)c1)OC(=O)CN)c1nc(C)c(C)nc1C

Compound: COC(=O)C1=CO[C@H](OC)[C@H]2C(CN3CCN(Cc4nc(C)c(C)nc4C)CC3)=CC[C@@H]12
IC50 (Acetylcholinesterase [8]): 0.218 µM

solubility [9]: 0.029 µg/mL (≈ 0.107 µM)
Compound: O=c1c(-c2ccc(O)cc2)coc2cc(O)cc(O)c12 [GENISTEIN]

IC50 [10]: 2 µM
IC50 [11]: 0.32 µM
Compound: O=C(/C=C/c1ccc(O)cc1)c1ccc(O)cc1O [ISOLIQUIRITIGENIN]
